Laboratory results taken from patent US20140271734A1, “BILE ACID RECYCLING INHIBITORS FOR TREATMENT OF BARRETT'S ESOPHAGUS AND GASTROESOPHAGEAL REFLUX DISEASE” (LUMENA PHARMACEUTICALS, INC., priority 2013, published 2014).
Marks after values point to notes of the source that are not given here.

Key:
[1] = system: serum total bile acid (SBA); assay: Time to onset of activity of LUM001 on postprandial serum bile acids in dogs; type: in vivo, beagle dogs; details: for Serum bile acids, mean: fed at 0 min
Procedure: LUM001 was dissolved in water at concentrations that required the administration of 0.2 ml/kg of solution. Solutions were placed into gelatin capsules, Torpac Inc., size 13 Batch 594, East Hanover N.J., and administered orally.
Male beagle dogs were obtained from Covance Research Products, Cumberland Va. or Marshall Farms USA, Inc., North Rose N.Y. A total of 20 dogs, 1 to 5 years old, 6.8 to 15.6 kg body weight, were used in these experiments. The dogs were conditioned to a 12 hour light/dark cycle and maintained on a feeding restriction of 1 hour per day access to food (Richman Standard Certified Canine Diet #5007, PMI Nutrition, Inc., St. Louis Mo.) from 7 to 8 AM. They were trained to eat a special meal promptly within 20 minutes when presented (1 can. 397 g, Evanger's 100% Beef for Dogs, Evanger's Dog and Cat Food Co., Inc., Wheeling Ill., mixed with 50 g of sharp cheddar cheese.).
SBA was measured by an enzymatic assay. SBA values are expressed as μg of total bile acids/ml of serum.
To estimate the details of this plateau, 6 dogs were given a test meal and blood samples for SBA measurement were collected at −30, 0, 30, 60, 65, 70, 80, 90, 120, 180, 240, 360, 480, 720, 1410 and 1440 minutes from the time of feeding. Any remaining food was removed 20 min after it was first presented to the dogs. To establish a method for extending the elevated plateau of SBA, 6 dogs were given the meal at 0 hr and an additional ½ size meal again 4 hr after their first meal. Blood samples were taken at 0, 1, 2, 3, 4, 4.5, 6, 7 and 8 hr. The curves for SBA level vs time obtained in these experiments were used as references for determining blood sampling times in experiments with LUM001. Wherever possible, experimental design permitting, in experiments with test compound, each dog served as its own simultaneous control, and the mean 1 hr SBA value served as the reference to which all other mean values were compared.
LUM001 was administered at 0, 0.01, 0.05, 0.2 and 1 mg/kg, p.o. to dogs, n=6, 1 hr after feeding the standard experimental meal. Blood samples for SBA measurement were taken at −30, 0, 30, 60, 65, 70, 80, 90, 120 and 180 minutes from the time of feeding. Each dog served as its own control, and mean SBA levels were compared to the mean SBA level at 60 minutes.

fecal bile acid (FBA) = assay: Fecal bile acids in hamsters, LUM001 for 28 days; type: in vivo, golden Syrian hamsters; details: for Weight-Adjusted Fecal Total Bile Acids Excretion: n=10
Procedure: Male golden Syrian hamsters (126-147 gm) were obtained from Charles Rivers Laboratories and were single housed in a constant temperature environment with alternating 12-hour light and dark cycles. Hamsters were fed Teklad 7001 rodent meal chow at libitum for two weeks before the experimental studies began and switched to Teklad 7001 rodent meal chow supplemented with 0.24% cholesterol on day one of the 28-day experiment. LUM001 was dissolved in an aqueous solution of 0.2% (w/v) Tween 80 and administered Q.D. by intragastric gavage between 9 a.m. and 10 a.m. each morning using a syringe fitted with a flexible feeding tube. Blood samples were collected after 14- and 28-day treatment periods by orbital sinus and cardiac puncture, respectively. Hamsters were anesthetized but not fasted prior to blood collections. Fecal samples were collected during a 48-hour period at the end of days 14 and 28 (i.e., days 13-14 and 27-28, respectively).
Fecal samples were collected to determine the fecal bile acid (FBA) concentration for each animal. The separate collections from each hamster were weighed and homogenized with distilled water with a Polytron tissue processor (Brinkman Instruments) to generate a homogeneous slurry. Fecal homogenate (1.4 grams) was extracted with 2.6 mL of a solution containing tertiary butanol:distilled water in the ratio of 2:0.6 [final concentration of 50% (v/v) tertiary butanol] for 45 minutes in a 37° C. water bath and subjected to centrifugation for 13 minutes at 2000×g. The concentration of bile acids (mmolesgram homogenate) was determined using a 96-well enzymatic assay system (6, 7). Aliquots of the fecal extracts (20 μl) were added to two sets of triplicate wells in a 96-well assay plate. A standardized sodium taurocholate solution and a standardized fecal extract solution (previously made from pooled samples and characterized for its bile acid concentration) were also analyzed for assay quality control. Aliquots of 90 mM sodium taurocholate ([…]), were serially diluted to generate a standard curve containing 30-540 nmoles/well. A […] aliquot of reaction mixture containing 1M hydrazine hydrate, 0.1 M pyrophosphate and 0.46 mg/ml NAD was added to each well. Subsequently, a […] aliquot of either 3a-hydroxysteroid dehydrogenase enzyme (HSD; 0.8 units/ml) or assay buffer (0.1 M sodium pyrophosphate) was then added to one each of the two sets of triplicates. Following 60 minutes of incubation at room temperature, the optical density at 340 nm was measured and the mean of each set of triplicate samples was calculated. The difference in optical density±HSD enzyme was used to determine the bile acid concentration (mM) of each sample based on the sodium taurocholate standard curve. The bile acid concentration of the extract (mmolesgram homogenate), the total weight of the fecal homogenate (grams) and the body weight of the hamsters (g) were used to calculate the corresponding FBA concentration in mmoles/day/kg body weight for each animal. All reagents used for the assay were obtained from Sigma Chemical Co., St. Louis, Mo. (HSD—catalog # H-1506; NAD—catalog # N1636; sodium taurocholate—catalog # T-4009).

## CCCCC1(CCCC)CS(=O)(=O)c2ccc(N(C)C)cc2[C@@H](c2ccc(OCc3ccc(C[N+]45CCN(CC4)CC5)cc3)cc2)[C@H]1O [LUM001]
[1]; 0.05 mg/kg orally 1 hour after feeding
  Time to significantly lowered SBA levels after dosing: 1 to 2 h
[1]; 0.05 mg/kg p.o. at 60 min, 120 min
  Serum bile acids, mean: 6.5* μg/ml
[1]; 0.05 mg/kg p.o. at 60 min, −30 min
  Serum bile acids, mean: 1.4 µg/mL
[1]; 0.2 mg/kg p.o. at 60 min, 30 min
  Serum bile acids, mean: 9.1 µg/mL
[1]; 1 mg/kg vs ED50 dose 0.2 mg/kg
  Onset time to significant SBA lowering: did not shorten the onset time
[1]; administered orally 1 hour after feeding
  Threshold dose, dog SBA model: 0.05 mg/kg
Fecal bile acid (FBA); 5 mg/kg/day
  Weight-Adjusted Fecal Total Bile Acids Excretion, % change from vehicle group: (+233) %
  Weight-Adjusted Fecal Total Bile Acids Excretion: 60 µmol/day/kg
Fecal bile acid (FBA); 15 mg/kg/day
  Weight-Adjusted Fecal Total Bile Acids Excretion, % change from vehicle group: (+267) %
  Weight-Adjusted Fecal Total Bile Acids Excretion: 66 µmol/day/kg
Fecal bile acid (FBA); 50 mg/kg/day
  Weight-Adjusted Fecal Total Bile Acids Excretion, % change from vehicle group: (+422) %
  Weight-Adjusted Fecal Total Bile Acids Excretion: 94 µmol/day/kg
